Consider 15 compounds from patent publication US20250034136A1 (Nimbus Wadjet, Inc., priority 2023, published 2025).

Where two headings read alike, the source gives them in different places. Some results are limits rather than exact numbers.

Test [1] relates to p21 induction in HCT116 cells. Put plainly: p21 induction in HCT116 cells. The class given is cell-based. As to conditions: Homo sapiens, HCT-116, 24 h, read-out: P21_EC50. A digest of the protocol:
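EC50 from non-linear curve fit of p21 immunofluorescence (800 nm), with GAPDH (700 nm) read alongside. DMSO and a reference WRN inhibitor served as low and high controls. Cells (2,000/well) got 11 compound concentrations in duplicate for 24 h at 37 °C.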

Test [2] deals with WRN (BV08), human Werner helicase (Uniprot Q14191, amino acids 517-1235 with L1074F point mutation) (Homo sapiens (Human), UniProt Q14191, L1074F). Put plainly: WRN (BV08) ADP-Glo assay. The conditions noted are these: class symbols A-E, read-out: ADP-Glo_hWRN_IC50. The test is classed as biochemical. For orientation: ADP-Glo first removes unused ATP, then detects ADP through luciferase.

The mark [3] stands for this setting: HCT116 cells, 24 h compound incubation.

Sequence of WRN (BV08), human Werner helicase (Uniprot Q14191, amino acids 517-1235 with L1074F point mutation) (Q14191 other isoform, or with tags, fused parts or gaps L1074F (already in the parent)): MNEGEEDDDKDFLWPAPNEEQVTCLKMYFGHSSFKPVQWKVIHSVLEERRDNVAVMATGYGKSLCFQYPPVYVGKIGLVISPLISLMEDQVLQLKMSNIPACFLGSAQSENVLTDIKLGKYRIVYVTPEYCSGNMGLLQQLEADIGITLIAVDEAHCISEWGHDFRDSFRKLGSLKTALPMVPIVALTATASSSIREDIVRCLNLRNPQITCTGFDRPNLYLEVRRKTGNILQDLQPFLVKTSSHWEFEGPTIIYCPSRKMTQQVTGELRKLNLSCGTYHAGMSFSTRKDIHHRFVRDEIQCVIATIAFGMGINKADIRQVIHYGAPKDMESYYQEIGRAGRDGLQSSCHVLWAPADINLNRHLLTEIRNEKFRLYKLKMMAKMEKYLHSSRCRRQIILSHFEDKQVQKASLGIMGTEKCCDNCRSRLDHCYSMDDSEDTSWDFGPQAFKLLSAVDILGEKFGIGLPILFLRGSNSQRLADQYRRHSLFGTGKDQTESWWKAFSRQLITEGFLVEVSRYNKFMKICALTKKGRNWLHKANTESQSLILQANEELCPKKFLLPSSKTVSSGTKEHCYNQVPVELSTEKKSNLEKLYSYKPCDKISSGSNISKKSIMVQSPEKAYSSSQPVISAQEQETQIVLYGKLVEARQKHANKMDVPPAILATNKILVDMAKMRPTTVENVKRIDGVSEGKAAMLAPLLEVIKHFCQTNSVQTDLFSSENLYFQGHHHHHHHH

As to `CCc1c(N2CCN(C(=O)c3ncnc(C)c3O)CC2)c(=O)c2nc(N(C)CCO)cnc2n1CC(=O)Nc1ccc(C(F)(F)F)cc1Cl` [I-73, N-(2-chloro-4-(trifluoromethyl)phenyl)-2-(6-ethyl-7-(4-(5-hydroxy-6-methylpyrimidine-4-carbonyl)piperazin-1-yl)-2-((2-hydroxyethyl)(methyl)amino)-8-oxopyrido[2,3-b]pyrazin-5(8H)-yl)acetamide], the EC50 in test [1] (setting [3]) is over 5000 nM. Besides, the IC50 in test [2] lay in the range of 5 to 50 nM.
On the same counts, the results for `CCc1c(N2CCN(C(=O)c3ncnc(C)c3O)CC2)c(=O)c2nc(C(=O)NC)cnc2n1CC(=O)Nc1ccc(C(F)(F)F)cc1Cl` [I-54, 5-(2-((2-chloro-4-(trifluoromethyl)phenyl)amino)-2-oxoethyl)-6-ethyl-7-(4-(5-hydroxy-6-methylpyrimidine-4-carbonyl)piperazin-1-yl)-N-methyl-8-oxo-5,8-dihydropyrido[2,3-b]pyrazine-2-carboxamide] are over 5000 nM and 100 to 500 nM.
On the same counts, the results for `CCc1c(N2CCN(C(=O)c3ncnc(C)c3O)[C@H]3CC[C@@H]32)c(=O)c2nc(N(C)C)cnc2n1CC(=O)Nc1ccc(OC(F)(F)F)cc1` [I-120, 2-[2-(dimethylamino)-6-ethyl-7-[(1S,6S)-5-(5-hydroxy-6-methylpyrimidine-4-carbonyl)-2,5-diazabicyclo[4.2.0]octan-2-yl]-8-oxo-5H,8H-pyrido[2,3-b]pyrazin-5-yl]-N-[4-(trifluoromethoxy)phenyl]acetamide] are under 500 nM and 5 to 50 nM.
On the same counts, the results for `CCc1c(N2CCN(C(=O)c3ncnc(C)c3O)CC2)c(=O)c2nc(N(C)CC(F)F)cnc2n1CC(=O)Nc1ccc(C(F)(F)F)cc1Cl` [I-167, N-[2-chloro-4-(trifluoromethyl)phenyl]-2-{2-[(2,2-difluoroethyl)(methyl)amino]-6-ethyl-7-[4-(5-hydroxy-6-methylpyrimidine-4-carbonyl)piperazin-1-yl]-8-oxo-5H,8H-pyrido[2,3-b]pyrazin-5-yl}acetamide] are 2000 to 5000 nM and 5 to 50 nM.
Consider `C/C=C/c1nc2c(=O)c(N3CCN(C(=O)c4ncnc(C)c4O)CC3)c(CC)n(CC(=O)Nc3ccc(C(F)(F)F)cc3Cl)c2nc1C` [I-21, (E)N-(2-chloro-4-(trifluoromethyl)phenyl)-2-(6-ethyl-7-(4-(5-hydroxy-6-methylpyrimidine-4-carbonyl)piperazin-1-yl)-3-methyl-8-oxo-2-(prop-1-en-1-yl)pyrido[2,3-b]pyrazin-5(8H)-yl)acetamide], for which the EC50 in test [1] (setting [3]) was in the range of 500 to 2000 nM. For the same compound, in test [2], the IC50 fell in the range of 5 to 50 nM.
On the same counts, the results for `CCc1c(N2CCN(C(=O)c3ncnc(C)c3O)CC2)c(=O)c2nc(N(C3CC3)C3CC3)cnc2n1CC(=O)Nc1ccc(C(F)(F)F)cc1Cl` [I-179, N-[2-chloro-4-(trifluoromethyl)phenyl]-2-[2-(dicyclopropylamino)-6-ethyl-7-[4-(5-hydroxy-6-methylpyrimidine-4-carbonyl)piperazin-1-yl]-8-oxo-5H,8H-pyrido[2,3-b]pyrazin-5-yl]acetamide] are 2000 to 5000 nM and 5 to 50 nM.
The matching figures for `CCc1c(N2CCN(C(=O)c3ncnc(C)c3O)[C@H]3CC[C@@H]32)c(=O)c2nc(N(C)C)c(C)nc2n1CC(=O)Nc1ccc(C(F)(F)F)cc1F` [I-129]: under 500 nM and 5 to 50 nM.
On the same counts, the results for `CCc1c(N2CCN(C(=O)c3ncnc(C)c3O)C[C@@H]2C)c(=O)c2nc(N(C)C)cnc2n1CC(=O)Nc1ccc(S(F)(F)(F)(F)F)cc1Cl` [I-185, N-[2-chloro-4-(pentafluoro-lambda6-sulfanyl)phenyl]-2-[2-(dimethylamino)-6-ethyl-7-[(2S)-4-(5-hydroxy-6-methylpyrimidine-4-carbonyl)-2-methylpiperazin-1-yl]-8-oxo-5H,8H-pyrido[2,3-b]pyrazin-5-yl]acetamide] are under 500 nM and 5 to 50 nM.
`CCc1c(N2CCN(C(=O)c3ncnc(C)c3O)[C@@H](COC)C2)c(=O)c2nc(N(C)C)cnc2n1CC(=O)Nc1ccc(C(F)(F)F)cc1Cl` (single isomer, unassigned) [I-303, N-(2-chloro-4-(trifluoromethyl)phenyl)-2-(2-(dimethylamino)-6-ethyl-7-(4-(5-hydroxy-6-methylpyrimidine-4-carbonyl)-3-(methoxymethyl)piperazin-1-yl)-8-oxopyrido[2,3-b]pyrazin-5(8H)-yl)acetamide]: the EC50 in test [1] (setting [3]) was over 5000 nM. The IC50 in test [2] lay within 50 to 100 nM.
Take `CCc1c(N2CCN(C(=O)c3ncnc(C)c3O)CC2)c(=O)c2nc(C3CC3)cnc2n1CC(=O)Nc1ccc(C(F)(F)F)cc1Cl` [I-10, N-(2-chloro-4-(trifluoromethyl)phenyl)-2-(2-cyclopropyl-6-ethyl-7-(4-(5-hydroxy-6-methylpyrimidine-4-carbonyl)piperazin-1-yl)-8-oxopyrido[2,3-b]pyrazin-5(8H)-yl)acetamide]: in test [1] (setting [3]), the EC50 was 2000 to 5000 nM. Also, the IC50 in test [2] lay within 5 to 50 nM.
The matching figures for `CCc1c(N2CCN(C(=O)c3ncnc(C)c3O)[C@H]3CC[C@@H]32)c(=O)c2nc(N(C)CCOC)cnc2n1CC(=O)Nc1ccc(C(F)(F)F)cc1Cl` [I-255, N-[2-chloro-4-(trifluoromethyl)phenyl]-2-{6-ethyl-7-[(1S,6S)-5-(5-hydroxy-6-methylpyrimidine-4-carbonyl)-2,5-diazabicyclo[4.2.0]octan-2-yl]-2-[(2-methoxyethyl)(methyl)amino]-8-oxo-5H,8H-pyrido[2,3-b]pyrazin-5-yl}acetamide]: under 500 nM and 5 to 50 nM.
In the case of `CCc1c(N2CCN(C(=O)c3c(OC)ncc(C)c3O)CC2)c(=O)c2nc(C3CC3)cnc2n1CC(=O)Nc1ccc(C(F)(F)F)cc1Cl` [I-239, N-[2-chloro-4-(trifluoromethyl)phenyl]-2-{2-cyclopropyl-6-ethyl-7-[4-(4-hydroxy-2-methoxy-5-methylpyridine-3-carbonyl)piperazin-1-yl]-8-oxo-5H,8H-pyrido[2,3-b]pyrazin-5-yl} acetamide], the EC50 in test [1] (setting [3]) was under 500 nM. Also, in test [2], the IC50 lay in the range of 5 to 50 nM.
For the compound `CCc1c(N2CCN(C(=O)c3ncnc(C)c3O)[C@H]3CC[C@@H]32)c(=O)c2nc(N3CCOCC3)cnc2n1CC(=O)Nc1ccc(C(F)(F)F)cc1Cl` [I-250, N-[2-chloro-4-(trifluoromethyl)phenyl]-2-{6-ethyl-7-[(1S,6S)-5-(5-hydroxy-6-methylpyrimidine-4-carbonyl)-2,5-diazabicyclo[4.2.0]octan-2-yl]-2-(morpholin-4-yl)-8-oxo-5H,8H-pyrido[2,3-b]pyrazin-5-yl}acetamide], in test [1] (setting [3]), the EC50 is under 500 nM. Also, the IC50 in test [2] is 5 to 50 nM.
Turning to `C=Cc1nc2c(=O)c(N3CCN(C(=O)c4ncnc(C)c4O)CC3)c(CC)n(CC(=O)Nc3ccc(C(F)(F)F)cc3Cl)c2nc1C` [I-18, N-(2-chloro-4-(trifluoromethyl)phenyl)-2-(6-ethyl-7-(4-(5-hydroxy-6-methylpyrimidine-4-carbonyl)piperazin-1-yl)-3-methyl-8-oxo-2-vinylpyrido[2,3-b]pyrazin-5(8H)-yl)acetamide], in test [1], the EC50 was in the range of 500 to 2000 nM. In addition, in test [2], the IC50 is 5 to 50 nM.
Turning to `CCc1c(N2CCN(C(C)=O)CC2)c(=O)c2ncc(C)nc2n1CC(=O)Nc1ccc(C(F)(F)F)cc1Cl` [I-5, 2-(7-(4-acetylpiperazin-1-yl)-6-ethyl-3-methyl-8-oxopyrido[2,3-b]pyrazin-5(8H)-yl)-N-(2-chloro-4-(trifluoromethyl)phenyl)acetamide], the EC50 in test [1] (setting [3]) is over 5000 nM. Besides, the IC50 in test [2] fell in the range of 100 to 500 nM.
